Like-named read-outs stand apart in the source and are kept apart here.
Tests used:
Test in all cases: biochemical
Set-up in all cases: KINOMEscan active site-directed competition binding assay (DiscoveRx), 456 kinases, per cent of control at 300 nM
Conditions in all cases: read-out: Percent of Control (%)
[1] = biological target: T1, RSK1(Kin.Dom.1-N-terminal) (Homo sapiens, UniProt Q15418)
T1 construct: gene RPS6KA1; Kin.Dom.1-N-terminal
Method in brief: (§1)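 Compounds at 300 nmol/L screened against 456 kinases by KINOMEscan, a competition binding assay measuring displacement at the kinase active site.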

PIP5K2B = biological target: T2, PIP5K2B (Homo sapiens, UniProt P78356)
T2 construct: gene PIP4K2B
Method in brief: as §1

FGFR2 = FGFR2 (Homo sapiens, UniProt P21802)
Method in brief: as §1

PIK3CA(H1047L) = PIK3CA(H1047L) (Homo sapiens, UniProt P42336, H1047L)
Method in brief: as §1

MLK3 = biological target: T3, MLK3 (Homo sapiens, UniProt Q16584)
T3 construct: gene MAP3K11
T3 sequence (Q16584 whole entry): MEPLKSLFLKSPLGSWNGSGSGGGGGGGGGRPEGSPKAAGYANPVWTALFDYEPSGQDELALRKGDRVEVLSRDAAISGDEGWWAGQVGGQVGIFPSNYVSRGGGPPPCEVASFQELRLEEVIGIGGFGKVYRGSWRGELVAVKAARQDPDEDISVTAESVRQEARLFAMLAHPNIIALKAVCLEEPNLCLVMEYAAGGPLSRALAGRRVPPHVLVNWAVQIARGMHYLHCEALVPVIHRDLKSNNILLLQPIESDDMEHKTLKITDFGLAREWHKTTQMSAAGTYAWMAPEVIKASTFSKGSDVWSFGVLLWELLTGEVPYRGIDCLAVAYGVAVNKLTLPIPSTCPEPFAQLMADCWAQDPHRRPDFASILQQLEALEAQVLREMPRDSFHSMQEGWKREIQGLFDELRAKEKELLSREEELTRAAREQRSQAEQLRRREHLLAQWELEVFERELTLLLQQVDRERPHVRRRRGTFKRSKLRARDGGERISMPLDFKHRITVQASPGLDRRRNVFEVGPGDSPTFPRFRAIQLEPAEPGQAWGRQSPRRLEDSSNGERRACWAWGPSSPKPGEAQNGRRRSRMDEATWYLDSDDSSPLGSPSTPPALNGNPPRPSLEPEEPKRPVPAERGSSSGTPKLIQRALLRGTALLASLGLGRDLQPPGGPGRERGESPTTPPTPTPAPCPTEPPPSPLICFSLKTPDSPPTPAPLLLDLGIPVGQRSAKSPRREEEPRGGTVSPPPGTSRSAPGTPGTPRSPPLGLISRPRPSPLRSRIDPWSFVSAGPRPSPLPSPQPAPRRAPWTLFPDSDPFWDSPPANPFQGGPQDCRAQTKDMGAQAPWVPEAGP
Method in brief: as §1

SGK = biological target: T4, SGK (Homo sapiens, UniProt O00141)
T4 construct: gene SGK1
Method in brief: as §1

EGFR = EGFR (Homo sapiens, UniProt P00533)
Method in brief: as §1

PDGFRA = PDGFRA (Homo sapiens, UniProt P16234)
Method in brief: as §1

PRKCI = PRKCI (Homo sapiens, UniProt P41743)
Method in brief: as §1

[2] = biological target: EGFR(L747-S752del, P753S) (Homo sapiens, UniProt P00533, DEL747-752/P753S)
EGFR(L747-S752del, P753S), sequence (P00533 with tags, fused parts or gaps DEL747-752/P753S): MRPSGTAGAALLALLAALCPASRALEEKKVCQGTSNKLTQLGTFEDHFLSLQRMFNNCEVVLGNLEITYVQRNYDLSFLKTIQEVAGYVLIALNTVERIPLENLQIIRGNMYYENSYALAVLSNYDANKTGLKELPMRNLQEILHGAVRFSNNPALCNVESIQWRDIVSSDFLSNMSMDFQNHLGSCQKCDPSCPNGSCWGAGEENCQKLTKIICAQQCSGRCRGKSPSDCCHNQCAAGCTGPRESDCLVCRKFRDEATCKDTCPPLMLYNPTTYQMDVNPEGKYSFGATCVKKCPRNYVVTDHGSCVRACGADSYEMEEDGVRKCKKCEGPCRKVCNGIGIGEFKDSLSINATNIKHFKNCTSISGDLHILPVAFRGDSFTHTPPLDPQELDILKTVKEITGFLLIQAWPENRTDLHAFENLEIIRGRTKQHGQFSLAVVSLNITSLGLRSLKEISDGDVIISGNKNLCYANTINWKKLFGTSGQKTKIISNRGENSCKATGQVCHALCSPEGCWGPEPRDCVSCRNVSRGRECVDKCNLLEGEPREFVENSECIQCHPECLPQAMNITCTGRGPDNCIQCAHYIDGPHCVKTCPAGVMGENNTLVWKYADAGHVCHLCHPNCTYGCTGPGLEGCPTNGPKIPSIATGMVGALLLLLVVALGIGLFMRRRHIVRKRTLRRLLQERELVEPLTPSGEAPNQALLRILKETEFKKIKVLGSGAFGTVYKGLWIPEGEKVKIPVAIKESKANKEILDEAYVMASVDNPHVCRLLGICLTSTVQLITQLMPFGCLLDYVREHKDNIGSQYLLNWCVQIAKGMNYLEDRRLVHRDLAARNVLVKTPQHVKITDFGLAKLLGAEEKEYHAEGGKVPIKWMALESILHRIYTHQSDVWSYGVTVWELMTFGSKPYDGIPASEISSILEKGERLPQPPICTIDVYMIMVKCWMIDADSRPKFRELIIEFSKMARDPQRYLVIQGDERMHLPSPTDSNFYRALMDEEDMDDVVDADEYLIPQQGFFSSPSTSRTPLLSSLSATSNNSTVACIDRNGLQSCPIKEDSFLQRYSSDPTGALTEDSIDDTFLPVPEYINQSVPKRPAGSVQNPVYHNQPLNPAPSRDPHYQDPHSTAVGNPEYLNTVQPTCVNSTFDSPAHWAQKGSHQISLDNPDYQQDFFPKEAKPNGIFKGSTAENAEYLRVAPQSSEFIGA
Method in brief: as §1

CSK = CSK (Homo sapiens, UniProt P41240)
CSK, sequence (P41240 whole entry): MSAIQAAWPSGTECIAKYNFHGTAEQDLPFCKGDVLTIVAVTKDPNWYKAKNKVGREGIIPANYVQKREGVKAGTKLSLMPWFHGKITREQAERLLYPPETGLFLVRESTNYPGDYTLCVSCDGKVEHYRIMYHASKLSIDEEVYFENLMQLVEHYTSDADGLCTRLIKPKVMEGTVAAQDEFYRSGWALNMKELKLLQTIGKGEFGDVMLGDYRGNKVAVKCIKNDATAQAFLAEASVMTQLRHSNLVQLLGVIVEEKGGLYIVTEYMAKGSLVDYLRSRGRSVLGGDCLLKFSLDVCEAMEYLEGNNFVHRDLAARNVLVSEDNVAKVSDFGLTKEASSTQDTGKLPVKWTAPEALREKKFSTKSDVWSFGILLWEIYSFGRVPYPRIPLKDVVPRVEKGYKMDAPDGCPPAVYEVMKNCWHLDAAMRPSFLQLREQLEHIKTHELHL
Method in brief: as §1

MKNK2 = MKNK2 (Homo sapiens, UniProt Q9HBH9)
MKNK2, sequence (Q9HBH9 whole entry): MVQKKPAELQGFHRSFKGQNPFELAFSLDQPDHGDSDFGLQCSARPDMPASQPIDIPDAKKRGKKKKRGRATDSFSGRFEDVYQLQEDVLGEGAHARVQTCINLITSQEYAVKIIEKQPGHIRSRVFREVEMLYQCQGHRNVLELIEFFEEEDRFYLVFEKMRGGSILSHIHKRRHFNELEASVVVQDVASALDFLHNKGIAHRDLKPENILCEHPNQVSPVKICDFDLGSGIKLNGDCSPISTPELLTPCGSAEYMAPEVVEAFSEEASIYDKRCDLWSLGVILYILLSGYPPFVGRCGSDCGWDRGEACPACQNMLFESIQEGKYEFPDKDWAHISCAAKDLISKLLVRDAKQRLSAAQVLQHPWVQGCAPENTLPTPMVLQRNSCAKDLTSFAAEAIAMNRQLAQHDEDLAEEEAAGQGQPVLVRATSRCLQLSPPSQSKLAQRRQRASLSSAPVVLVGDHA
Method in brief: as §1

[3] = biological target: T5, RSK2(Kin.Dom.1-N-terminal) (Homo sapiens, UniProt P51812)
T5 construct: gene RPS6KA3; Kin.Dom.1-N-terminal
Method in brief: as §1

GAK = GAK (Homo sapiens, UniProt O14976)
Method in brief: as §1

MAP4K2 = MAP4K2 (Homo sapiens, UniProt Q12851)
Method in brief: as §1

TTK = TTK (Homo sapiens, UniProt P33981)
TTK, sequence (P33981 whole entry): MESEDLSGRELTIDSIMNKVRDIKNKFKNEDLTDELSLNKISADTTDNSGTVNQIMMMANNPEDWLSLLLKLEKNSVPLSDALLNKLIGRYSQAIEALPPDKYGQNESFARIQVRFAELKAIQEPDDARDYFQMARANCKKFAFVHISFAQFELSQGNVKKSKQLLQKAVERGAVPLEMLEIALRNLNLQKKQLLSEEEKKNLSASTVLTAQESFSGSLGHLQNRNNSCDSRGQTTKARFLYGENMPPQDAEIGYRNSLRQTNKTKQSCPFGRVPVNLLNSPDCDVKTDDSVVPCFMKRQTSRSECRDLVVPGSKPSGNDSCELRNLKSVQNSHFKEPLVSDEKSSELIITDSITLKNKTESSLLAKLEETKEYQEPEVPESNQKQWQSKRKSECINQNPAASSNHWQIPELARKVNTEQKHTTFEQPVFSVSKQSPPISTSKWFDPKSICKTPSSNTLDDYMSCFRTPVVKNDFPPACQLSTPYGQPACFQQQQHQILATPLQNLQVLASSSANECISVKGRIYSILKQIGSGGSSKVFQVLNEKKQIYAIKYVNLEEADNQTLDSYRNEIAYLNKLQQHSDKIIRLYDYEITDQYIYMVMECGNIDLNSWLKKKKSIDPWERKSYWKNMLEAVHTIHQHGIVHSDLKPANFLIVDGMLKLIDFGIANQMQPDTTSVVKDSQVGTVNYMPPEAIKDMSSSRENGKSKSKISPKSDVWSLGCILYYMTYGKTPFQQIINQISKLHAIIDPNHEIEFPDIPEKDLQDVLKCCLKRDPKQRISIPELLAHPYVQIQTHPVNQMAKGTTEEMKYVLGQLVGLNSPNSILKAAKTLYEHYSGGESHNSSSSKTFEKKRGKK
Method in brief: as §1

CAMKK2 = CAMKK2 (Homo sapiens, UniProt Q96RR4)
Method in brief: as §1

[4] = biological target: T6, ABL1(F317L)-phosphorylated (Homo sapiens, UniProt P00519, F317L)
T6 construct: phosphorylated
Method in brief: as §1

AMPK-alpha1 = biological target: T7, AMPK-alpha1 (Homo sapiens, UniProt Q13131)
T7 construct: gene PRKAA1
Method in brief: as §1

KIT(D816H) = KIT(D816H) (Homo sapiens, UniProt P10721, D816H)
KIT(D816H), sequence (P10721 whole entry D816H): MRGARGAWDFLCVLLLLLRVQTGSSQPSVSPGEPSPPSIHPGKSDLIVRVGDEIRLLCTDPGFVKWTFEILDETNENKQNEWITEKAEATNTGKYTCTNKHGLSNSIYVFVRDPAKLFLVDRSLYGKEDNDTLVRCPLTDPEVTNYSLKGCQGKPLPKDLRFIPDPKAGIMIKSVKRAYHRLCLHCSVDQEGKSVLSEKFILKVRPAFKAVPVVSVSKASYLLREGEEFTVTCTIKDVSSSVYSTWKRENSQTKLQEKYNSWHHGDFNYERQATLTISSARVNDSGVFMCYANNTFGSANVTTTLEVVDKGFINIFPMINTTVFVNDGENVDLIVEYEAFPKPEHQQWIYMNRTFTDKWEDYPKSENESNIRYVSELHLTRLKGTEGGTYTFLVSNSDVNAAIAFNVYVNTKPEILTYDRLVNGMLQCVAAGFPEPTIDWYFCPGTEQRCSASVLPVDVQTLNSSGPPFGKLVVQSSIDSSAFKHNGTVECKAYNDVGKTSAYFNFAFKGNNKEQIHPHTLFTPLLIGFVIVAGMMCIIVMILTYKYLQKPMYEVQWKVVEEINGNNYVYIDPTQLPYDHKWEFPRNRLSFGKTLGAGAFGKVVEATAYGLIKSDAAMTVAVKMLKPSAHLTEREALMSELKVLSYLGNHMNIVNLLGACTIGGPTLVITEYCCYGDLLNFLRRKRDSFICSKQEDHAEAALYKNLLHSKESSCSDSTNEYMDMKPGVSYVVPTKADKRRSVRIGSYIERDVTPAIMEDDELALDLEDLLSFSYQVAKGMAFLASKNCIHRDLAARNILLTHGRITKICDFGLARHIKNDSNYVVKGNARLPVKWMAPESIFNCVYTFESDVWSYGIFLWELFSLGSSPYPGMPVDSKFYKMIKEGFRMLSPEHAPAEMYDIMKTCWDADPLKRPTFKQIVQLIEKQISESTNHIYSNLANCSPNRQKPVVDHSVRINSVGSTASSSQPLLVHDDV
Method in brief: as §1

CSNK2A2 = CSNK2A2 (Homo sapiens, UniProt P19784)
Method in brief: as §1

O=C(/C=C/c1cnccc1-c1ccc(F)cc1)Nc1ccc(CCc2nnco2)cc1 [T-418, (2E)-3-(4-(4-fluorophenyl)pyridin-3-yl)-N-(4-(2-(1,3,4-oxadiazol-2-yl)ethyl)phenyl)acrylamide]
remaining binding at 0.3 µM ([1]; sheet T-418): 78% | remaining binding at 0.3 µM (PIP5K2B; sheet T-418): 94% | remaining binding at 0.3 µM (FGFR2; sheet T-418): 90% | remaining binding at 0.3 µM (PIK3CA(H1047L); sheet T-418): 100% | remaining binding at 0.3 µM (MLK3; sheet T-418): 94% | remaining binding at 0.3 µM (SGK; sheet T-418): 88% | remaining binding at 0.3 µM (EGFR; sheet T-418): 59% | remaining binding at 0.3 µM (PDGFRA; sheet T-418): 97% | remaining binding at 0.3 µM (PRKCI; sheet T-418): 70% | remaining binding at 0.3 µM ([2]; sheet T-418): 87% | remaining binding at 0.3 µM (CSK; sheet T-418): 86% | remaining binding at 0.3 µM (MKNK2; sheet T-418): 97% | remaining binding at 0.3 µM ([3]; sheet T-418): 100% | remaining binding at 0.3 µM (GAK; sheet T-418): 100% | remaining binding at 0.3 µM (MAP4K2; sheet T-418): 100% | remaining binding at 0.3 µM (TTK; sheet T-418): 90% | remaining binding at 0.3 µM (CAMKK2; sheet T-418): 100% | remaining binding at 0.3 µM ([4]; sheet T-418): 100% | remaining binding at 0.3 µM (AMPK-alpha1; sheet T-418): 100% | remaining binding at 0.3 µM (KIT(D816H); sheet T-418): 74% | remaining binding at 0.3 µM (CSNK2A2; sheet T-418): 100%

Cc1ncccc1Oc1sc(C(N)=O)c2c1-c1c(cnn1C)CC2 [T-474, 1-methyl-8-((2-methylpyridin-3-yl)oxy)-4,5-dihydro-1H-thieno[3,4-g]indazole-6-carboxamide]
remaining binding at 0.3 µM [1]: 95% | remaining binding at 0.3 µM (PIP5K2B): 100% | remaining binding at 0.3 µM (FGFR2): 100% | remaining binding at 0.3 µM (PIK3CA(H1047L)): 100% | remaining binding at 0.3 µM (MLK3): 97% | remaining binding at 0.3 µM (SGK): 100% | remaining binding at 0.3 µM (EGFR): 61% | remaining binding at 0.3 µM (PDGFRA): 96% | remaining binding at 0.3 µM (PRKCI): 77% | remaining binding at 0.3 µM [2]: 61% | remaining binding at 0.3 µM (CSK): 86% | remaining binding at 0.3 µM (MKNK2): 86% | remaining binding at 0.3 µM [3]: 100% | remaining binding at 0.3 µM (GAK): 92% | remaining binding at 0.3 µM (MAP4K2): 100% | remaining binding at 0.3 µM (TTK): 97% | remaining binding at 0.3 µM (CAMKK2): 100% | remaining binding at 0.3 µM [4]: 100% | remaining binding at 0.3 µM (AMPK-alpha1): 100% | remaining binding at 0.3 µM (KIT(D816H)): 78% | remaining binding at 0.3 µM (CSNK2A2): 100%

From paper PMC5862592, “CDK8/19 inhibition induces premature G1/S transition and ATR-dependent cell death in prostate cancer cells” (Oncotarget, 2018)
